Source: patent US12522614B2, “Topical phosphoinositide 3-kinase inhibitors” (VENTHERA, INC., priority 2019, dated 2026)

Assays:
[1] = Six-month stability study of topical gel formulations including Compound 1.002; format: physicochemical; conditions: Table 24 gel (10% oleyl alcohol, 40% DPG), Lablabo Amcor Foil 18 mL containers, 40° C./75% RH, month 6
Experimental: Unless otherwise indicated, a HPLC method was used to determine the content of Compound 1.002 and impurities; ASTM D 1544 was used as the standard test method for color of gel formulations; a gas chromatographic method was used to determine the content of oleic acid; and Brookfield viscometer was used to measure viscosity (cP) of gel formulations.
The gel formulation in HPLC glass vials was subjected to stability study at 40° C./75%0 RH for 6 months. A purity of Compound 1.002 on month 0, 1, 3, and 6 month at 40° C./75% RH was determined by HPLC. The detected impurity of Compound 1.002 appears to be the hydrolysis product, as MTPP. Table 21 represents stability data of Compound 1.002 in the topical formulation having […]. […]
The gel formulation in Lablabo Amcor Foil 18 mL containers was subjected to stability study at 40° C./75% RH for 6 months. A purity of Compound 1.002 on month 0, 1, 3, 4, 5, and 6 month at 40° C./75% RH was determined by HPLC. The detected impurity of Compound 1.002 appears to be the hydrolysis product, as MTPP. Table 25 represents stability data of Compound 1.002 in the topical formulation having 10% oleic alcohol and 40% DPG. […]

MTOR/FRAP1 = molecular target: T1, MTOR/FRAP1 (Homo sapiens, UniProt P42345); test: Lipid kinase inhibitory activity, ADP-Glo; format: biochemical
T1 construct: purchased Reaction Biology Corporation (RBC)
Experimental: (§1) Lipid kinases: Lipid kinases from Reaction Biology Corporation (RBC) in ADP-Glo format were used.
(§2) Assay Description: The kinase reactions utilized ATP and produced ADP as a byproduct. The ADP production was quantified by ADP-Glo luminescence detection. This assay was a 3-step reaction. First, the kinase reaction with lipid substrate was carried out in the presence of ATP, and the reaction was quenched and depleted remaining ATP with ADP-Glo™ reagent, and then finally ADP was converted to ATP which was measured using a luciferase/luciferin reaction.
(§3) Assay Procedure: The assay was performed according to the steps as follows: • 1. Preparing substrate in freshly prepared reaction buffer; • 2. Delivering kinase into the substrate solution and gently mixing; • 3. Delivering compounds in […] into the kinase reaction mixture by Acoustic technology (Echo550; nanoliter range), incubating for 20 minutes at room temperature; • 4. Delivering ATP into the reaction mixture to initiate the reaction; • 5. Incubating for 30 minutes at 30° C.; • 6. Quenching the reaction with ADP-Glo reagent and incubating for 40 minutes; • 7. Adding Detection Mixture and incubating for 30 minutes; and • 8. Measuring luminescence.
(§4) Data Analysis: The luminescence was converted into μM ADP production based on ADP standard curves. The nonlinear regression to obtain the standard curve and IC50 values were performed using Graphpad Prism software.

PI3Kb (p110b/p85a) = molecular target: T2, PI3Kb (p110b/p85a) (Homo sapiens, UniProt P42338); test: Lipid kinase inhibitory activity, ADP-Glo; format: biochemical; conditions: β
T2 construct: purchased Reaction Biology Corporation (RBC)
Experimental: as §1, §2, §3, §4

[2] = In vitro human skin permeation study of topical gel formulations (Franz diffusion cells); format: in vitro ADME
[3] = Study-1, Example 8 gel, human skin, Donor 1, 2 h
[4] = Study-1, Example 8 gel, human skin, Donor 1, 4 h
[5] = Study-1, Example 8 gel, human skin, Donor 1, 8 h
[6] = Study-1, Example 8 gel, human skin, Donor 1, 24 h
[7] = Study-1, Example 8 gel, human skin, Donor 1, 48 h
[8] = Study-1, Example 8 gel, human skin, Donor 2, 2 h
[9] = Study-1, Example 8 gel, human skin, Donor 2, 8 h
[10] = Study-1, Example 8 gel, human skin, Donor 2, 24 h
[11] = Study-1, Example 8 gel, human skin, Donor 2, 48 h
[12] = Study-1, Example 8 gel, human skin, Donor 3, 4 h
[13] = Study-1, Example 8 gel, human skin, Donor 3, 8 h
[14] = Study-1, Example 8 gel, human skin, Donor 3, 24 h
[15] = Study-1, Example 8 gel, human skin, Donor 3, 48 h
[16] = Study-2, gel saturated at 120 mg/mL, human skin, 2 h
[17] = Study-2, gel saturated at 120 mg/mL, human skin, 4 h
[18] = Study-2, gel saturated at 120 mg/mL, human skin, 8 h
[19] = Study-2, gel saturated at 120 mg/mL, human skin, 24 h
[20] = Study-2, gel saturated at 120 mg/mL, human skin, 48 h

T2 sequence (P42338 whole entry): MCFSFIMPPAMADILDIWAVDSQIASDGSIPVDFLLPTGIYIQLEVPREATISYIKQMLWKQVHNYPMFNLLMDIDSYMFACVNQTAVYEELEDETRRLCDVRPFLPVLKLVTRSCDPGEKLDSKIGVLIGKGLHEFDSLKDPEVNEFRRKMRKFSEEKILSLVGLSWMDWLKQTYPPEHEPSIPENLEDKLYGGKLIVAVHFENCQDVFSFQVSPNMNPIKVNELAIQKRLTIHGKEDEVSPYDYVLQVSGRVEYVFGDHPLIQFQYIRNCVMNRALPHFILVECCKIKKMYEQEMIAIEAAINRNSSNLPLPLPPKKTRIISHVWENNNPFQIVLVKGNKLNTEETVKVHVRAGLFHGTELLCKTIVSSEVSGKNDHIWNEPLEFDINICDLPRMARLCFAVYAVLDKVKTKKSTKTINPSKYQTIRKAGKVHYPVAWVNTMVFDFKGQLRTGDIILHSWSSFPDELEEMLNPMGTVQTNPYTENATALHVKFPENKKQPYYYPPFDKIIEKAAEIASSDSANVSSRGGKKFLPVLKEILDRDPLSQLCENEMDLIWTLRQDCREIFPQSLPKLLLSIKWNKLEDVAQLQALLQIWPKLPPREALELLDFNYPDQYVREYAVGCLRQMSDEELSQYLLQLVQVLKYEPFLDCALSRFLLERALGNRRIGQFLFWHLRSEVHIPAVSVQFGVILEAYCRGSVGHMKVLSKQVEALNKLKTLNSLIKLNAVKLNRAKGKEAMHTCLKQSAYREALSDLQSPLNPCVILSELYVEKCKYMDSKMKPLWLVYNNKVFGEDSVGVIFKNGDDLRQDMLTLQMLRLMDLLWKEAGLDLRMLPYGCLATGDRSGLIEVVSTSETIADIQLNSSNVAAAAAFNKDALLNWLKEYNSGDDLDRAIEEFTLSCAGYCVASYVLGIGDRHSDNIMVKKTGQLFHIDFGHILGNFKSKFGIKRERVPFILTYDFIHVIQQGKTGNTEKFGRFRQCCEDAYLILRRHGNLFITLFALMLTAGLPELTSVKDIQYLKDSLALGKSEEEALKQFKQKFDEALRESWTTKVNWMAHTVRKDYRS
T2 sequence (P27986 whole entry partner): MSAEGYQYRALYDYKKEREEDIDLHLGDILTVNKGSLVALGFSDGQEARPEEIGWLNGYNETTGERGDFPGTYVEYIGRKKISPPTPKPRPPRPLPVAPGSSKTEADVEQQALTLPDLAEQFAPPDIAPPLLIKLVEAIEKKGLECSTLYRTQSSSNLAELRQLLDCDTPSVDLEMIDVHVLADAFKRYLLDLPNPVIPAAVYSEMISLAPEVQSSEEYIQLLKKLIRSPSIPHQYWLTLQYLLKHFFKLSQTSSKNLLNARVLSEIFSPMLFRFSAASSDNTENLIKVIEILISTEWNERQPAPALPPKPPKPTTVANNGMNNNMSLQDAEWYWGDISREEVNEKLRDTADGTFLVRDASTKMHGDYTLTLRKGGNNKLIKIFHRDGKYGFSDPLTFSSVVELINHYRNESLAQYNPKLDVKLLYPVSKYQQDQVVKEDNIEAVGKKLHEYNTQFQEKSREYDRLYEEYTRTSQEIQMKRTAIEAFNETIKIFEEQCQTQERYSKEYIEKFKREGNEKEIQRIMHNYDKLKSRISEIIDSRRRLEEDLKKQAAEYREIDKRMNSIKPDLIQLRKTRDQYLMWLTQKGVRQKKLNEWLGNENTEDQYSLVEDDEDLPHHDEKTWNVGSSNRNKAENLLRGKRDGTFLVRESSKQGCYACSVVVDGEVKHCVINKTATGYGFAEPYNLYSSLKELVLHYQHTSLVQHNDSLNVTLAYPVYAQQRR

## CC(=O)Oc1cccc(-c2nc(N3CCOCC3)c3sccc3n2)c1 [Compound 1.002, 3-(4-Morpholinothieno[3,2-d]pyrimidin-2-yl)phenyl Acetate]
[1]
  Compound 1.002 content: 51.1 mg/mL
  MTPP (Relative Purity): 10.0%
  Visual Appearance: no crystals
MTOR/FRAP1
  IC50: 1.41 µM
PI3Kb (p110b/p85a)
  IC50: 0.257 µM
[2]; Example 15, gels with 1%, 2%, 5% and 10% oleic acid, FIG. 13
  Effect of oleic acid amount on flux through human skin: increases as the increase of the amount of oleic acid
[2]; Example 15, gels with 1%, 2%, 5% and 10% oleic acid, human skin
  Metabolism of Compound 1.002 to MTPP: Majority of Compound 1.002 metabolized to MTPP
[2]; Example 16, three formulations, 24 hour time point
  Share of total permeated (MTPP+Compound 1.002) that was Compound 1.002: about 10%
[2]; [3]
  Cumulative permeation, Cmpd. 1.002: 0.00 μg/cm^2
  Hydrolysis of Cmpd. 1.002 to MTPP: 100%
[2]; [4]
  Cumulative permeation, Cmpd. 1.002: 0.00 μg/cm^2
  Hydrolysis of Cmpd. 1.002 to MTPP: 100%
[2]; [5]
  Cumulative permeation, Cmpd. 1.002: 0.00 μg/cm^2
  Hydrolysis of Cmpd. 1.002 to MTPP: 100%
[2]; [6]
  Cumulative permeation, Cmpd. 1.002: 13.47 μg/cm^2
  Hydrolysis of Cmpd. 1.002 to MTPP: 82.9%
[2]; [7]
  Cumulative permeation, Cmpd. 1.002: 85.01 μg/cm^2
  Hydrolysis of Cmpd. 1.002 to MTPP: 58.5%
[2]; [8]
  Cumulative permeation, Cmpd. 1.002: 0.00 μg/cm^2
  Hydrolysis of Cmpd. 1.002 to MTPP: 100%
[2]; Study-1, Example 8 gel, human skin, Donor 2, 4 h
  Cumulative permeation, Cmpd. 1.002: 0.00 μg/cm^2
[2]; [9]
  Cumulative permeation, Cmpd. 1.002: 1.09 μg/cm^2
  Hydrolysis of Cmpd. 1.002 to MTPP: 87.0%
[2]; [10]
  Cumulative permeation, Cmpd. 1.002: 15.44 μg/cm^2
  Hydrolysis of Cmpd. 1.002 to MTPP: 83.6%
[2]; [11]
  Cumulative permeation, Cmpd. 1.002: 82.83 μg/cm^2
  Hydrolysis of Cmpd. 1.002 to MTPP: 59.6%
[2]; [12]
  Cumulative permeation, Cmpd. 1.002: 0.00 μg/cm^2
  Hydrolysis of Cmpd. 1.002 to MTPP: 100%
[2]; [13]
  Cumulative permeation, Cmpd. 1.002: 0.00 μg/cm^2
  Hydrolysis of Cmpd. 1.002 to MTPP: 100%
[2]; [14]
  Cumulative permeation, Cmpd. 1.002: 5.18 μg/cm^2
  Hydrolysis of Cmpd. 1.002 to MTPP: 92.0%
[2]; [15]
  Cumulative permeation, Cmpd. 1.002: 70.87 μg/cm^2
  Hydrolysis of Cmpd. 1.002 to MTPP: 65.5%
[2]; Study-1 and Study-2, human skin, first 24-hour period
  Amount of permeated Compound 1.002 metabolized to MTPP: 82%-100%
[2]; [16]
  Cumulative permeation, Cmpd. 1.002: 0.00 μg/cm^2
  Hydrolysis of Cmpd. 1.002 to MTPP: 100%
[2]; [17]
  Cumulative permeation, Cmpd. 1.002: 0.00 μg/cm^2
  Hydrolysis of Cmpd. 1.002 to MTPP: 100%
[2]; [18]
  Cumulative permeation, Cmpd. 1.002: 0.00 μg/cm^2
  Hydrolysis of Cmpd. 1.002 to MTPP: 100%
[2]; [19]
  Cumulative permeation, Cmpd. 1.002: 0.00 μg/cm^2
  Hydrolysis of Cmpd. 1.002 to MTPP: 100%
[2]; [20]
  Cumulative permeation, Cmpd. 1.002: 78.10 μg/cm^2
  Hydrolysis of Cmpd. 1.002 to MTPP: 83.9%
[2]; Study-3, saturated gel formulations, 48 hour period, FIG. 4
  Permeation through human skin relative to MTPP: about 6 times
